Several values for one entry are separate records, joined by “and”; a condition that tells them apart may be missing. Equal values may be shown once. Where a SMILES comes first, the peptide text is derived from it. The star is where a group is joined. X2 = CN(C)c1ccc2c(-c3ccc(N4C(=O)CC(*)C4=O)cc3C(=O)[O-])c3ccc(=[N+](C)C)cc-3oc2c1; X1 = CCOC(=O)c1cc2cc3c(cc2oc1=O)N(CC(=O)NCCN1C(=O)CC(*)C1=O)C(C)(C)CC3C

One may read the cell viability as the share of living cells, or the viability signal relative to a control.

Data set [1] in a line: Critical Micelle Concentration by pyrene 1:3 ratio method. The data set is classed as physicochemical. Particulars: water solutions, 25 °C, 5 × 10^−7 μM pyrene, excitation 335 nm, I1 373 nm / I3 385 nm, 0.5-100 μM peptide, center of Boltzmann sigmoid fit. The protocol: All the peptide solutions were always freshly prepared and dye-labeled peptides were quantified by UV-Vis absorbance. Unlabeled peptides were quantified by amino acidic digestion obtained by the mineralization of a known amount of peptide (5–50 μg) dissolved in 200–500 μl of HCl 6 M, with the following conditions: temperature: 170 °C; time: 20 minutes. Finally, derivatized amino acids were detected by RP-HPLC (Jupiter 4 μm Proteo 90 Å column (250 × 4.6 mm; Phenomenex) with these solvents: water:TFA 100:0.01 v/v (eluent A)/acetonitrile:water:TFA 95:5:0.01 v/v (eluent B), flux 1 ml/min, and their identity was confirmed by electrospray mass spectroscopy. CMC values of peptide and labeled-peptide systems were then determined by the pyrene 1:3 ratio method. Fluorescence emission spectra at 25 °C of unlabeled and labeled peptide water solutions containing 5 × 10^−7 μM pyrene were recorded using an excitation wavelength of 335 nm. The intensities I1 and I3 were measured at the wavelengths corresponding to the first and third vibronic bands of pyrene (373 nm, emission range: 368–378 nm, and 385 nm, emission range: 380–390 nm, respectively). According to literature, the plot of the pyrene 1:3 ratio index as a function of the concentration of the surfactant can be described by a decreasing sigmoid of the Boltzmann type and indicates the transition from the monomeric to the aggregated form of the peptide. Experimental raw data were fitted using the OriginPro8 software, and the center of the sigmoid is identified as the characteristic CMC.

The test system of data set [2] is CHO-K1 cells. Description: WST-8 Cell Viability Assay. The data set is classed as cell-based, Chinese Hamster. The protocol:
Cytotoxicity of unlabeled peptides and dye-labeled peptides was evaluated by the WST-8 assay. CHO-K1 cell proliferation was evaluated by plating 5 × 10^3 cells per well in 96-well plates. After 24 hours in serum-containing DMEM-F12 medium, the cells were incubated with a serum-free DMEM-F12 solution of unlabeled or dye-labeled peptides for 2 hours at 37 °C. After the incubation, the medium was removed, cells were washed with PBS 1X and incubated for 2 hours at 37 °C with 100 μl of a 10%-solution of WST-8 dissolved in serum-containing DMEM-F12. Absorbance at 450 nm was measured using a multiplate reader (Microplate Reader, GloMax®-Discover and Explorer Systems, Promega). Cell viability was quantitatively determined by comparing peptide-treated cells with untreated cells (as a reference of 100% viability) and cells treated with dimethyl sulfoxide (DMSO) 20% v/v. Reported data represent the average of three independent experiments, in which three wells for each concentration were measured. Error bars represent the standard errors.
On the technique in general: Tetrazolium dyes change colour on reduction, which living cells bring about.

In data set [3] the test system is CHO-K1 cells. As to the kind of experiment: Cell uptake / translocation by confocal fluorescence microscopy. The data set is classed as cell-based, Chinese Hamster. The note with it: all concentrations tested (0.5-10 μM), serum-free medium, peptide from water stock, 20 min at 37 °C. The protocol: Homogeneous peptide solutions used for translocation experiments were always freshly prepared. Purified dye-labeled peptides were pre-dissolved in 100–200 μl of water and sonicated for 15 minutes at 25 °C. Then they were quantified by UV-Vis absorbance (concentration ranging between 100 and 200 μM; for ATTO 425 Maleimide: ε436(water) = 45000 cm^−1M^−1, for TAMRA: ε543(water) = 80000 cm^−1M^−1). An appropriate amount from this stock water-solution was diluted in 200–300 μl of serum-free DMEM F-12 growth medium and then administered to cells. Ionic strength was adjusted to physiological values adding the required amount of 10X PBS buffer.
Chinese Hamster Ovary (CHO-K1) and PgsA-745 cells were purchased from ATCC (reference numbers: CCL-61 and CRL-2242, respectively) and grown in DMEM F-12 medium supplemented with 10% of Fetal Bovine Serum (FBS) at 37 °C with 5% CO2, according to manufacturer’s instructions. […]
Confocal imaging experiments were performed with a Leica TCS SP5 SMD inverted confocal microscope (Leica Microsystems) interfaced with a diode laser (Picoquant) for excitation at 405 nm. […] All images and videos collected were analyzed by ImageJ software version 1.440 (NIH Image; http://rsbweb.nih.gov/ij/). […] RICS correlation function was calculated by the SimFCS software, developed at the Laboratory for Fluorescence Dynamics (www.lfd.uci.edu). […]

A short description of data set [4]: Dynamic Light Scattering of peptide aggregates. The data set is classed as physicochemical. The note with it: water solutions at 100 μM (above CMC), 25 °C, scattering angle 90°, average of five consecutive measurements. The protocol: DLS measurements were performed at 25 °C in a 50-μL quartz cuvette on a Zetasizernano ZS DLS (Malvern Instrument) following the manufacturer’s instructions. Water solutions of labeled-peptide at 100 μM were analyzed with a single scattering angle of 90°. Each value reported is the average of five consecutive measurements.

Data set [5] can be described thus: UV absorption of peptide in water after addition from DMSO stock (precipitation). The note with it: 2μM in water, added directly from DMSO stock, UV absorption versus addition from water solution; consistent with a precipitate. The data set is classed as physicochemical. Here is the method:
Fig S5: UV absorption spectra of TP2 at 2μM concentration in water, measured upon addition of the peptide directly from DMSO stock solution (blue trace) or from a water solution (black trace). Only this latter procedure yields the expected absorption spectrum (indicated by the dashed black line). […] This in turn is consistent with the formation of a stabilized phase that is not diffusing in solution, but likely under the form of a precipitate.

In the case of `CN(C)c1ccc2c(-c3ccc(N4C(=O)C=CC4=O)cc3C(=O)[O-])c3ccc(N(C)C)cc3[o+]c2c1` [TAMRA, Tetramethylrhodamine-5-maleimide], the “Critical Micelle Concentration (CMC)” value in data set [1] is ~80 µM and 80 ± 14 µM.
With `CCOC(=O)c1cc2cc3c(cc2oc1=O)N(CC(=O)NCCN1C(=O)CC(SC[C@H](NC(=O)CNC(=O)[C@H](CCCNC(=N)N)NC(=O)[C@H](CC(C)C)NC(=O)[C@H](CC(C)C)NC(=O)[C@H](CCCNC(=N)N)NC(=O)[C@H](CC(C)C)NC(=O)[C@H](Cc2ccc(O)cc2)NC(=O)[C@@H](NC(=O)[C@H](CC(C)C)NC(=O)[C@@H]2CCCN2)[C@@H](C)CC)C(=O)O)C1=O)C(C)(C)CC3C` (stereo partly drawn) [TM9-ATTO 425] (H-PLIYLRLLRGC(X1)-OH), the cell viability with CHO-K1 cells [2] (20 µM) is 60%; in the data set with CHO-K1 cells [2] (30 µM), 40%.
Consider `CC[C@H](C)[C@H](NC(=O)[C@H](CC(C)C)NC(=O)[C@@H]1CCCN1)C(=O)N[C@@H](Cc1ccc(O)cc1)C(=O)N[C@@H](CC(C)C)C(=O)N[C@@H](CCCNC(=N)N)C(=O)N[C@@H](CC(C)C)C(=O)N[C@@H](CC(C)C)C(=O)N[C@@H](CCCNC(=N)N)C(=O)NCC(=O)N[C@@H](CSC1CC(=O)N(c2ccc(-c3c4ccc(=[N+](C)C)cc-4oc4cc(N(C)C)ccc34)c(C(=O)[O-])c2)C1=O)C(=O)O` (stereo partly drawn) [TM9-TAMRA] (H-PLIYLRLLRGC(X2)-OH; N-terminus and C-terminus assumed), for which the “Critical Micelle Concentration (CMC)” value in data set [1] turned out to be 3.8 ± 0.5 µM. Besides, the “uptake mechanism (confocal imaging)” value in the data set on CHO-K1 cells [3] was “only endocytosis is present”. Further, in data set [4], the “hydrodynamic radius (RH) from DLS” value turned out to be 135 ± 14 nm.
On to PLIYLRLLR-G-QF [TP2], for which the “peptide apparently lost upon direct addition from DMSO to water” value in data set [5] is listed as about 60%. In data set [1], the “Critical Micelle Concentration (CMC)” value amounted to 1.0 ± 0.2 µM. Further, the “hydrodynamic radius (RH) from DLS” value in data set [4] is 163 ± 6 nm.

The values above are taken from PMC4645181, “Spontaneous membrane-translocating peptides: influence of peptide self-aggregation and cargo polarity” (Scientific Reports, 2015).
